Where two headings read alike, the source gives them in different places.
Columns and labels:
[1] = system: S. aureus^MS; test: MIC by broth microdilution (aerobic pathogens), test strain 1; format: cell-based; settings: Staphylococcus aureus
Description: (§1) The antibacterial activity of the compounds of Examples 1 to 48 of the present invention against aerobic pathogens were evaluated by measuring the minimum concentration of the antibiotic capable of inhibiting bacterial growth by 90% compared to the growth of the non-drug treated control group. MIC was measured by the broth microdilution method based on CLSI standards [Reference: Clinical and Laboratory Standards Institute Document. (2000) Methods for Dilution Antimicrobial Susceptibility Test for Bacteria that Grow Aerobically-Fifth Edition: M7-A5. CLSI, Villanova, PA].
(§2) All 13 strains such as methicillin susceptible Staphylococcus aureus (MSSA), methicillin resistant Staphylococcus aureus (MRSA), Vancomycin resistant Staphylococcus aureus (VRSA), Staphylococcus epidermidis, methicillin resistant Staphylococcus epidermidis, Enterococcus faecalis, Vancomycin resistant Enterococcus faecalis, Enterococcus faecium, Vancomycin resistant Enterococcus faecium were used.

[2] = system: M. avium; test: MIC by resazurin (REMA) assay against Mycobacterium, test strain 21; format: cell-based; settings: test strain 21, M. avium, resazurin, read-out: MIC
Description: (§3) In order to test the antibacterial activity, the medium of Mycobacterium cultured to late log phase was diluted so as to be 4.0×10^5 cells/well in Middlebrook 7H10 agar medium (Difco) supplemented with 10% oleic acid, albumin, dextrose, catalase (OADC, Becton Dickinson) and 0.05% Tween 80 (Sigma Aldrich) and was dispensed into a 96-well plate. The compounds were treated so that DMSO was 1%, and after 3 days, a 0.025% resazurin (REMA) solution was dispensed, and the growth of the bacteria was confirmed after culturing. The MIC value was measured for the antibacterial activity through resazurin (excitation 530 nm, emission 590 nm).

[3] = system: M. intracelluare; test: MIC by resazurin (REMA) assay against Mycobacterium, test strain 22; format: cell-based; settings: Mycobacterium intracellulare; test strain 22, M. intracelluare, resazurin; read-out: MIC
Description: as §3

[4] = system: S. aureus^MS; test: MIC by broth microdilution (aerobic pathogens), test strain 2; format: cell-based; settings: Staphylococcus aureus
Description: as §1, §2

[5] = system: M. abscessus; test: MIC by resazurin (REMA) assay against Mycobacterium, test strain 23; format: cell-based; settings: Mycobacteroides abscessus; test strain 23, M. abscessus, resazurin; read-out: MIC
Description: as §3

[6] = system: S. epidermis^MR; test: MIC by broth microdilution (aerobic pathogens), test strain 6; format: cell-based, Methicillin resistant Staphylococcus epidermidis; settings: Staphylococcus epidermidis
Description: as §1, §2

[7] = system: C. difficile 174; test: MIC by agar dilution against Clostridioides difficile, test strain 18; format: cell-based
[8] = system: C. difficile 152; test: MIC by agar dilution against Clostridioides difficile, test strain 14; format: cell-based
[9] = system: E. faecalis^LinR; test: MIC by broth microdilution (aerobic pathogens), test strain 9; format: cell-based, Linezolid resistant Enterococcus faecalis; settings: Enterococcus faecalis
Description: as §1, §2

[10] = system: E. faecalis^VanA; test: MIC by broth microdilution (aerobic pathogens), test strain 8; format: cell-based, Vancomycin resistant Enterococcus faecalis; settings: Enterococcus faecalis
Description: as §1, §2

[11] = system: E. faecium; test: MIC by broth microdilution (aerobic pathogens), test strain 10; format: cell-based; settings: Enterococcus faecium
Description: as §1, §2

[12] = system: C. difficile 181; test: MIC by agar dilution against Clostridioides difficile, test strain 19; format: cell-based; settings: test strain 19, C. difficile 181, anaerobic, agar dilution, read-out: MIC
[13] = system: C. difficile 159; test: MIC by agar dilution against Clostridioides difficile, test strain 15; format: cell-based
[14] = system: C. difficile 9689; test: MIC by agar dilution against Clostridioides difficile, test strain 13; format: cell-based
[15] = system: S. aureus^VR; test: MIC by broth microdilution (aerobic pathogens), test strain 4; format: cell-based, Vancomycin resistant Staphylococcus aureus; settings: Staphylococcus aureus
Description: as §1, §2

[16] = system: S. epidermis; test: MIC by broth microdilution (aerobic pathogens), test strain 5; format: cell-based; settings: Staphylococcus epidermidis
Description: as §1, §2

[17] = system: C. difficile 173; test: MIC by agar dilution against Clostridioides difficile, test strain 17; format: cell-based; settings: test strain 17, C. difficile 173, anaerobic, agar dilution, read-out: MIC
[18] = system: S. aureus^MR; test: MIC by broth microdilution (aerobic pathogens), test strain 3; format: cell-based, Methicillin resistant Staphylococcus aureus; settings: Staphylococcus aureus
Description: as §1, §2

[19] = system: E. faecalis; test: MIC by broth microdilution (aerobic pathogens), test strain 7; format: cell-based; settings: Enterococcus faecalis
Description: as §1, §2

[20] = system: E. faecium^VRE; test: MIC by broth microdilution (aerobic pathogens), test strain 11; format: cell-based, Vancomycin resistant Enterococcus faecium; settings: Enterococcus faecium
Description: as §1, §2

[21] = system: C. difficile 161; test: MIC by agar dilution against Clostridioides difficile, test strain 16; format: cell-based
[22] = system: E. faecium^LinR; test: MIC by broth microdilution (aerobic pathogens), test strain 12; format: cell-based, Linezolid resistant Enterococcus faecium; settings: Enterococcus faecium
Description: as §1, §2

[23] = test strain 1, S. aureus^MS, read-out: MIC
[24] = test strain 2, S. aureus^MS, read-out: MIC
[25] = test strain 18, C. difficile 174, anaerobic, agar dilution, read-out: MIC
[26] = test strain 14, C. difficile 152, anaerobic, agar dilution, read-out: MIC
[27] = test strain 15, C. difficile 159, anaerobic, agar dilution, read-out: MIC
[28] = test strain 13, C. difficile 9689, anaerobic, agar dilution, read-out: MIC
[29] = test strain 16, C. difficile 161, anaerobic, agar dilution, read-out: MIC
[30] = test strain 9, E. faecalis^LinR (linezolid resistant), read-out: MIC

Measured: MIC

C/C=C1\NC(=O)[C@H]([C@@H](C)O)NC(=O)c2csc(n2)-c2ccc(-c3nc(-c4nc(C(=O)NC5(C(=O)NCCN6CCN(CCO)CC6)CC5)cs4)cs3)nc2-c2csc(n2)[C@H]([C@@H](C)O)NC(=O)c2csc(n2)[C@H](C(C)C)NC(=O)c2csc1n2 [Compound 32]
0.153 µg/mL: [2] | [5]
0.5 µg/mL: [1]; [23] | [4]; [24]
0.116 µg/mL: [3]

CN[C@H](CC(C)C)C(=O)N[C@H]1C(=O)N[C@@H](CC(N)=O)C(=O)N[C@H]2C(=O)N[C@H]3C(=O)N[C@H](C(=O)N[C@H](C(=O)O)c4cc(O)cc(O)c4-c4cc3ccc4O)[C@H](O)c3ccc(c(Cl)c3)Oc3cc2cc(c3O[C@@H]2O[C@H](CO)[C@@H](O)[C@H](O)[C@H]2O[C@H]2C[C@](C)(N)[C@H](O)[C@H](C)O2)Oc2ccc(cc2Cl)[C@H]1O [Van, Vancomycin, reference compound]
1 µg/mL: [8]; [26] | [9] | [16] | [19] | [21]; [29]
0.5 µg/mL: [1] | [6] | [7]; [25] | [11] | [12] | [17] | [18] | [22]
> 128 µg/mL: [10] | [15] | [20]; VRE
2 µg/mL: [13]; [27] | [14]; [28]
0.25 µg/mL: [4]

C/C=C1\NC(=O)[C@H]([C@@H](C)O)NC(=O)c2csc(n2)-c2ccc(-c3nc(-c4nc(C(=O)NC5(C(=O)NCCN6CCN(C[C@@H](O)CO)CC6)CC5)cs4)cs3)nc2-c2csc(n2)[C@H]([C@@H](C)O)NC(=O)c2csc(n2)[C@H](C(C)C)NC(=O)c2csc1n2 [Compound 28]
0.25 µg/mL: [1]; [23]
0.13 µg/mL: [2]
0.115 µg/mL: [3]
0.5 µg/mL: [9]; [30] | [4]; [24]
0.49 µg/mL: [5]

C/C=C(\NC(=O)c1csc(-c2csc(-c3ccc4c(n3)-c3csc(n3)[C@H]([C@@H](C)O)NC(=O)c3csc(n3)[C@H](C(C)C)NC(=O)c3csc(n3)/C(=C/C)NC(=O)[C@H]([C@@H](C)O)NC(=O)c3csc-4n3)n2)n1)C(=O)NCCn1cnc([N+](=O)[O-])n1 [Compound 42]
1 µg/mL: [1]; [23] | [11]; test strain 10, E. faecium, read-out: MIC | [15]; test strain 4, S. aureus^VR (vancomycin resistant), read-out: MIC | [4]; [24] | [18]; test strain 3, S. aureus^MR (methicillin resistant), read-out: MIC | [20]; test strain 11, E. faecium^VRE (vancomycin resistant), read-out: MIC | [21]; [29] | [22]; test strain 12, E. faecium^LinR (linezolid resistant), read-out: MIC
0.5 µg/mL: [6]; test strain 6, S. epidermis^MR (methicillin resistant), read-out: MIC | [7]; [25] | [8]; [26] | [9]; [30] | [10]; test strain 8, E. faecalis^VanA (vancomycin resistant), read-out: MIC | [12] | [13]; [27] | [14]; [28] | [16]; test strain 5, S. epidermis, read-out: MIC | [17] | [19]; test strain 7, E. faecalis, read-out: MIC

C/C=C(\NC(=O)c1csc(-c2csc(-c3ccc4c(n3)-c3csc(n3)[C@H]([C@@H](C)O)NC(=O)c3csc(n3)[C@H](C(C)C)NC(=O)c3csc(n3)/C(=C/C)NC(=O)[C@H]([C@@H](C)O)NC(=O)c3csc-4n3)n2)n1)C(=O)NCCCN1C(=O)CNC1=O [Compound 40]
1 µg/mL: [13]; 159 | [14]; 9689 | [18] | [20]; VRE | [22]
0.5 µg/mL: [1] | [7]; 174 | [8]; 152 | [9] | [10] | [11] | [15] | [16] | [4] | [21]; 161
0.25 µg/mL: [6] | [19]

— US12637478B2, “Compound, preparation method thereof, and antibiotic composition comprising same” (priority 2020, dated 2026)
